Data as given in the supplement of paper PMC10307832.

Assays:
Assay in all cases: relative viability (nuclei count vs DMSO), 5 days (fraction); higher = more cells survive
COR-L 105 = tested on: COR-L 105
Summary of the method: (§1)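 Each reported value is a median over duplicate plates. It expresses relative viability: treated-well nuclei count divided by vehicle-well nuclei count. Lung cancer cell lines in 1536-well plates were dosed by pin tool a day after seeding, alone with one drug or with a fixed anchor-drug dose plus five library-drug doses (not always all listed) in √10 steps, and nuclei were counted after 5 days.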

LK-2 = tested on: LK-2
Summary of the method: as §1

LOU-NH91 = tested on: LOU-NH91
Summary of the method: as §1

NCI-H1666 = tested on: NCI-H1666
Summary of the method: as §1

HCC-366 = tested on: HCC-366
Summary of the method: as §1

BEN = tested on: BEN
Summary of the method: as §1

NCI-H1650 = tested on: NCI-H1650
Summary of the method: as §1

NCI-H727 = tested on: NCI-H727
Summary of the method: as §1

NCI-H460 = tested on: NCI-H460
Summary of the method: as §1

NCI-H441 = tested on: NCI-H441
Summary of the method: as §1

PC-14 = tested on: PC-14
Summary of the method: as §1

201T = tested on: 201T
Summary of the method: as §1

NCI-H2170 = tested on: NCI-H2170
Summary of the method: as §1

NCI-H3122 = tested on: NCI-H3122
Summary of the method: as §1

NCI-H2009 = tested on: NCI-H2009
Summary of the method: as §1

EKVX = tested on: EKVX
Summary of the method: as §1

ABC-1 = tested on: ABC-1
Summary of the method: as §1

SW 900 = tested on: SW 900
Summary of the method: as §1

HARA = tested on: HARA
Summary of the method: as §1

NCI-H661 = tested on: NCI-H661
Summary of the method: as §1

NCI-H1437 = tested on: NCI-H1437
Summary of the method: as §1

With CCN(CC)CCCCNc1ncc2cc(-c3cc(OC)cc(OC)c3)c(NC(=O)NC(C)(C)C)nc2n1 + Nc1ncn([C@H]2C[C@H](O)[C@@H](CO)O2)c(=O)n1 [Decitabine] (partner 2 µM) the relative viability (COR-L 105; first compound 0.01 µM) was 0.591, the relative viability (COR-L 105; first compound 0.03162 µM) was 0.777 and the relative viability (COR-L 105; first compound 0.1 µM) was 0.692. It also gave a relative viability (COR-L 105; first compound 0.3162 µM) of 0.786, a relative viability (COR-L 105; first compound 1 µM) of 0.669 and a relative viability (LK-2; first compound 0.01 µM) of 0.305. It also gave a relative viability (LK-2; first compound 0.03162 µM) of 0.268, a relative viability (LK-2; first compound 0.1 µM) of 0.192 and a relative viability (LK-2; first compound 0.3162 µM) of 0.217. For the same molecule, the relative viability (LK-2; first compound 1 µM) was 0.175, the relative viability (LOU-NH91; first compound 0.01 µM) was 0.799 and the relative viability (LOU-NH91; first compound 0.03162 µM) was 0.783. The relative viability (LOU-NH91; first compound 0.1 µM) was 0.875, the relative viability (LOU-NH91; first compound 0.3162 µM) was 0.801 and the relative viability (LOU-NH91; first compound 1 µM) was 0.804. For the same molecule, the relative viability (NCI-H1666; first compound 0.01 µM) was 0.695, the relative viability (NCI-H1666; first compound 0.03162 µM) was 0.791 and the relative viability (NCI-H1666; first compound 0.1 µM) was 0.761. It also gave a relative viability (NCI-H1666; first compound 0.3162 µM) of 0.759, a relative viability (NCI-H1666; first compound 1 µM) of 0.79 and a relative viability (HCC-366; first compound 0.01 µM) of 0.316. For the same molecule, the relative viability (HCC-366; first compound 0.03162 µM) was 0.378, the relative viability (HCC-366; first compound 0.1 µM) was 0.368 and the relative viability (HCC-366; first compound 0.3162 µM) was 0.41. For the same molecule, the relative viability (HCC-366; first compound 1 µM) was 0.319, the relative viability (BEN; first compound 0.01 µM) was 0.691 and the relative viability (BEN; first compound 0.03162 µM) was 0.728. It also gave a relative viability (BEN; first compound 0.1 µM) of 0.808, a relative viability (BEN; first compound 0.3162 µM) of 0.797 and a relative viability (BEN; first compound 1 µM) of 0.572. The relative viability (NCI-H1650; first compound 0.01 µM) was 0.398, the relative viability (NCI-H1650; first compound 0.03162 µM) was 0.381 and the relative viability (NCI-H1650; first compound 0.1 µM) was 0.397. For the same molecule, the relative viability (NCI-H1650; first compound 0.3162 µM) was 0.368, the relative viability (NCI-H1650; first compound 1 µM) was 0.384 and the relative viability (NCI-H727; first compound 0.01 µM) was 0.752. The relative viability (NCI-H727; first compound 0.03162 µM) was 0.871, the relative viability (NCI-H727; first compound 0.1 µM) was 0.871 and the relative viability (NCI-H727; first compound 0.3162 µM) was 1.09. It also gave a relative viability (NCI-H727; first compound 1 µM) of 0.717, a relative viability (NCI-H460; first compound 0.01 µM) of 0.505 and a relative viability (NCI-H460; first compound 0.03162 µM) of 0.591. It also gave a relative viability (NCI-H460; first compound 0.1 µM) of 0.645, a relative viability (NCI-H460; first compound 0.3162 µM) of 0.584 and a relative viability (NCI-H460; first compound 1 µM) of 0.412. It also gave a relative viability (NCI-H441; first compound 0.01 µM) of 0.118, a relative viability (NCI-H441; first compound 0.03162 µM) of 0.265 and a relative viability (NCI-H441; first compound 0.1 µM) of 0.242. For the same molecule, the relative viability (NCI-H441; first compound 0.3162 µM) was 0.261, the relative viability (NCI-H441; first compound 1 µM) was 0.244 and the relative viability (PC-14; first compound 0.01 µM) was 0.239. For the same molecule, the relative viability (PC-14; first compound 0.03162 µM) was 0.298, the relative viability (PC-14; first compound 0.1 µM) was 0.262 and the relative viability (PC-14; first compound 0.3162 µM) was 0.249. For the same molecule, the relative viability (PC-14; first compound 1 µM) was 0.228, the relative viability (201T; first compound 0.01 µM) was 0.864 and the relative viability (201T; first compound 0.03162 µM) was 0.847. It also gave a relative viability (201T; first compound 0.1 µM) of 0.86, a relative viability (201T; first compound 0.3162 µM) of 0.857 and a relative viability (201T; first compound 1 µM) of 0.83. It also gave a relative viability (NCI-H2170; first compound 0.01 µM) of 0.474, a relative viability (NCI-H2170; first compound 0.03162 µM) of 0.427 and a relative viability (NCI-H2170; first compound 0.1 µM) of 0.436. The relative viability (NCI-H2170; first compound 0.3162 µM) was 0.47, the relative viability (NCI-H2170; first compound 1 µM) was 0.497 and the relative viability (NCI-H3122; first compound 0.01 µM) was 0.493. For the same molecule, the relative viability (NCI-H3122; first compound 0.03162 µM) was 0.472, the relative viability (NCI-H3122; first compound 0.1 µM) was 0.418 and the relative viability (NCI-H3122; first compound 0.3162 µM) was 0.448. The relative viability (NCI-H3122; first compound 1 µM) was 0.42, the relative viability (NCI-H2009; first compound 0.01 µM) was 0.401 and the relative viability (NCI-H2009; first compound 0.03162 µM) was 0.39. It also gave a relative viability (NCI-H2009; first compound 0.1 µM) of 0.35, a relative viability (NCI-H2009; first compound 0.3162 µM) of 0.387 and a relative viability (NCI-H2009; first compound 1 µM) of 0.365. The relative viability (EKVX; first compound 0.03162 µM) was 0.323, the relative viability (EKVX; first compound 0.1 µM) was 0.329 and the relative viability (EKVX; first compound 0.3162 µM) was 0.314. For the same molecule, the relative viability (EKVX; first compound 1 µM) was 0.295, the relative viability (ABC-1; first compound 0.03162 µM) was 1.17 and the relative viability (ABC-1; first compound 0.1 µM) was 1.32. For the same molecule, the relative viability (ABC-1; first compound 0.3162 µM) was 1.06, the relative viability (ABC-1; first compound 1 µM) was 1.05 and the relative viability (SW 900; first compound 0.01 µM) was 0.509. For the same molecule, the relative viability (SW 900; first compound 0.03162 µM) was 0.401, the relative viability (SW 900; first compound 0.1 µM) was 0.459 and the relative viability (SW 900; first compound 0.3162 µM) was 0.416. For the same molecule, the relative viability (SW 900; first compound 1 µM) was 0.437, the relative viability (HARA; first compound 0.01 µM) was 0.625 and the relative viability (HARA; first compound 0.03162 µM) was 0.557. For the same molecule, the relative viability (HARA; first compound 0.1 µM) was 0.636, the relative viability (HARA; first compound 0.3162 µM) was 0.649 and the relative viability (HARA; first compound 1 µM) was 0.317. It also gave a relative viability (NCI-H661; first compound 0.01 µM) of 0.534, a relative viability (NCI-H661; first compound 0.03162 µM) of 0.529 and a relative viability (NCI-H661; first compound 0.1 µM) of 0.572. It also gave a relative viability (NCI-H661; first compound 0.3162 µM) of 0.573, a relative viability (NCI-H661; first compound 1 µM) of 0.455 and a relative viability (NCI-H1437; first compound 0.01 µM) of 0.599. The relative viability (NCI-H1437; first compound 0.03162 µM) was 0.541, the relative viability (NCI-H1437; first compound 0.1 µM) was 0.592 and the relative viability (NCI-H1437; first compound 0.3162 µM) was 0.58. It also gave a relative viability (NCI-H1437; first compound 1 µM) of 0.578.
